Test results: patent US20030219456A1, “Method of utilization of zygosaccharomyces rouxii” (priority 2002, published 2003)

What was measured:
Format in all cases: biochemical
[1] = DPPH free radical scavenging activity (Example 9); conditions: standard compounds 100 mg/ml in ethyl alcohol
Protocol: The said Sample was washed with ethyl acetate to get organic acids crystallized out. The crystals mainly consisted of succinic acid, which was identified by RI and H-NMR. The remaining magma, called bio-polyphenols (BPP) was tested for its anti-oxidant activity. The BPP was dissolved in ethyl alcohol to get concentrations of 100 mg/ml to 400 mg/ml. Standard compounds of BHA, BHT and vitamin E, which are recognized as strong anti-oxidants, and ZR drink described in Example 4 were also employed for comparison. Concentration of standard compounds in ethyl alcohol was 100 mg/ml each. The assay method to determine the scavenging activity of free radical DPPH was as described below.
Optical density OD was measured at 517 nm at 0 mm and 30 mm after mixing. Percent free radical scavenging activity was calculated as follows.
Percent activity=(Ac 1−(At2−Ab 1)}/Ac2×100,
Where Ac1=of control at 0 mm
Ac2=OD of control at 30 mm

[2] = Peroxide value (POV) activity, modified Rodan's method; conditions: 0.1 g/ml in ethyl alcohol, 0.05 ml; 50° C., 3 days, dark; OD 500 nm
Protocol: Peroxide value (POV) activity was determined by a slightly modified Rodan's method (Terasawa, N., Yamazaki, N., and Fukui Y: Antioxidant activity of water extracts of herbs, Nippon Shokuhin Kagaku Kogaku Kaishi, 48, 2, 99-104, 2001.)
After mixing in a screw-capped test tube, the reaction mass was incubated inside a dark incubator at 50° C. for 3 days. The assay of liberated peroxide compounds was carried out as follows.
After 3 minutes, optical density was measured at 500 nm. Percent POV activity was calculated as follows:
Percent activity=100×(OD of sample or standard/OD of control)

[3] = DPPH free radical scavenging activity (preferred embodiment); conditions: standard compounds 100 mg/ml (0.1 g/ml) in ethyl alcohol; OD 517 nm, 30 min
Protocol: Free radical scavenging activity was then evaluated. Standard solutions (0.1 g/ml in ethyl alcohol) of BHA, BHT and vitamin E were freshly prepared. DPPH scavenging activity was determined as described below. The following observations and results were then recorded: [table] Optical density OD was measured at 517 nm at 0 min and 30 min after mixing. Percent free radical scavenging activity was calculated as follows: Percent activity=100×{Ac1−(At2−Ab1)}/Ac2, Where Ac1=OD of control at 0 min At2=OD of test at 30 min Ab1=OD of blank at 0 min Ac2=OD of control at 30 min

COc1ccc(O)c(C(C)(C)C)c1 [BHA]
Percent activity (free radical scavenging) [1]: 83.0%
Percent activity (POV) = 100 x OD of sample or standard / OD of control [2]: 8.9%
Percent activity (free radical scavenging) [3]: 83.0%

Cc1cc(C(C)(C)C)c(O)c(C(C)(C)C)c1 [BHT]
Percent activity (free radical scavenging) [1]: 83.4%
Percent activity (POV) = 100 x OD of sample or standard / OD of control [2]: 13.5%
Percent activity (free radical scavenging) [3]: 83.4%

vitamin E
Percent activity (free radical scavenging) [1]: 83.0%
Percent activity (POV) = 100 x OD of sample or standard / OD of control [2]: 0%
Percent activity (free radical scavenging) [3]: 83.0%
